As a reminder, the inhibition is the drop in the measured response relative to a control, in per cent. Broadly, the IC50 is the concentration that inhibits the measured activity by half.

In test [1] the test system is VEGF induced increases in intracellular calcium levels in HUVEC (human umbilical vein endothelial cells). The experiment in a line: VEGF Stimulated Ca++ Signal in vitro (FLIPR). The test is classed as cell-based. The note with it: VEGF 5 ng/mL; for IC50: 0.01 to 10.0 μM. The procedure:
VEGF Stimulated Ca^++ Signal in vitro
Automated FLIPR (Fluorometric Imaging Plate Reader) technology was used to screen for inhibitors of VEGF induced increases in intracellular calcium levels in fluorescent dye loaded endothelial cells. HUVEC (human umbilical vein endothelial cells) (Clonetics) were seeded in 96-well fibronectin coated black-walled plates overnight at 37° C./5%CO2. Cells were loaded with calcium indicator Fluo-4 for 45 minutes at 37° C. Cells were washed 4 times (Original Cell Wash, Labsystems) to remove extracellular dye. Test compounds were reconstituted in 100% DMSO and added to the cells to give a final DMSO concentration of 0.1%. For screening, cells were pre-incubated with test agents for 30 minutes, at a single concentration (10 μM) or at concentrations ranging from 0.01 to 10.0 μM followed by VEGF stimulation (5 ng/mL). Changes in fluorescence at 516 nm were measured simultaneously in all 96 wells using a cooled CCD camera. Data were generated by determining max-min fluorescence levels for unstimulated, stimulated, and drug treated samples. IC50 values for test compounds were calculated from % inhibition of VEGF stimulated responses in the absence of inhibitor.

Test [2] addresses T1, cytoplasmic domain of the human VEGF receptor (VEGFR-2) (Homo sapiens, UniProt P35968).
T1 construct: The cytoplasmic domain of the human VEGF receptor (VEGFR-2) was expressed as a Histidine-tagged fusion protein; Histidine tag
The experiment in a line: KDR Assay. It is filed as biochemical. Particulars: His-VEGFR-2; 3.6 μM ATP. As to the method:
The cytoplasmic domain of the human VEGF receptor (VEGFR-2) was expressed as a Histidine-tagged fusion protein following infection of insect cells using an engineered baculovirus. His-VEGFR-2 was purified to homogeneity, as determined by SDS-PAGE, using nickel resin chromatography. Kinase assays were performed in 96 well microtiter plates that were coated overnight with 30 μg of poly-Glu-Tyr (4:1) in 10 mM Phosphate Buffered Saline (PBS), pH 7.2-7.4. The plates were incubated with 1% BSA and then washed four times with PBS prior to starting the reaction. Reactions were carried out in 120 μL reaction volumes containing 3.6 μM ATP in kinase buffer (50 mM Hepes buffer pH 7.4, 20 mM MgCl2, 0.1 mM MnCl2 and 0.2 mM Na3VO4). Test compounds were reconstituted in 100% DMSO and added to the reaction to give a final DMSO concentration of 5%. Reactions were initiated by the addition 0.5 ng of purified protein. Following a ten minute incubation at 25° C., the reactions were washed four times with PBS containing 0.05% Tween-20. 100 μl of a monoclonal anti-phosphotyrosine antibody-peroxidase conjugate was diluted 1:10000 in PBS-Tween-20 and added to the wells for 30 minutes. Following four washes with PBS-Tween-20, 100 μl of O-phenylenediamine Dihydrochloride in Phosphate-citrate buffer, containing urea hydrogen peroxide, was added to the wells for 7 minutes as a colorimetric substrate for the peroxidase. The reaction was terminated by the addition of 100 μl of 2.5N H2SO4 to each well and read using a microplate ELISA reader set at 492 nm. IC50 values for compound inhibition were calculated directly from graphs of optical density (arbitrary units) versus compound concentration following subtraction of blank values.

The structures appear in SMILES notation.

T1 sequence (P35968 786-1356): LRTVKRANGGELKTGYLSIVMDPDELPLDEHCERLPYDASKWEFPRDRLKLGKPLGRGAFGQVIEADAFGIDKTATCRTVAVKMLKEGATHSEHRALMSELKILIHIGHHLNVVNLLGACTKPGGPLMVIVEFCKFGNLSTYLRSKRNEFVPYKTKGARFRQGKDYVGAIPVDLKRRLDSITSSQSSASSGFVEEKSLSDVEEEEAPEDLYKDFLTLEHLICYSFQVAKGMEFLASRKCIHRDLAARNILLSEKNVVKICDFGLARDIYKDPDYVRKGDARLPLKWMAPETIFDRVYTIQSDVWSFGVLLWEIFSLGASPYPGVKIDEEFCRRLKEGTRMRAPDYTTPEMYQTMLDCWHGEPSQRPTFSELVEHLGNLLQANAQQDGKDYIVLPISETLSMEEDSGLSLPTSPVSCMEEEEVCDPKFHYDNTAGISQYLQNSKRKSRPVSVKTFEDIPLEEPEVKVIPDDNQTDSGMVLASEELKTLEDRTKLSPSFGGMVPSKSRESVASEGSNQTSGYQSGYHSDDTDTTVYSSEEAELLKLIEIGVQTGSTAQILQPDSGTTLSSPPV

`COc1ccc(NC=C2C(=O)Nc3ccc(Cl)cc32)cc1F` [Example 105, 5-Chloro-3-[(3-flouro-4-methoxyphenylamino)-methylene]-1,3-dihydro-indol-2-one]: the “VEGF Stimulated Ca^++ signal assay % inhibition @ 10 μM” value in test [1] is 17.50%. With `CCOc1ccc(NC=C2C(=O)Nc3ccc(Cl)cc32)cc1` [Example 107, 5-Chloro-3-[(4-ethoxyphenylamino)-methylene]-1,3-dihydro-indol-2-one], the inhibition at 10 µM in test [1] (Homo sapiens) came to 41.5%.

For `O=C1Nc2ccc(Cl)cc2C1=CNc1ccc(O)c(C(=O)O)c1` [Example 108, 5-(5-Chloro-2-oxo-1,2-dihydro-indol-3-ylidenemethylamino)-2-hydroxybenzoic acid], in test [1] (Homo sapiens), the inhibition at 10 µM is -14.5%. `Cc1cc(NC=C2C(=O)Nc3ccc(Cl)cc32)ccc1C(C)C` [Example 112, 5-Chloro-3-[(4-i-propyl-3-methylphenylamino)-methylene]-1,3-dihydro-indol-2-one]: the inhibition at 10 µM in test [1] (Homo sapiens) worked out at 10.5%. On the same count and under the same terms, the figure for `Cc1cccc2c1C(=CNc1ccc(O)c(C(=O)O)c1)C(=O)N2` [Example 118, 2-Hydroxy-5-[(4-methyl-2-oxo-1,2-dihydro-indol-3-ylidenemethyl)-amino]-benzoic acid] is -27%. For `Cc1cccc2c1C(=CNc1ccc(OC(F)(F)F)cc1)C(=O)N2` [Example 120, 4-Methyl-3-[(4-trifluoromethoxy-phenylamino)-methylene]-1,3-dihydro-indol-2-one], the inhibition at 10 µM in test [1] (Homo sapiens) came out at 12.7%.

For the compound `COc1ccc(NC=C2C(=O)Nc3cccc(C)c32)cc1C(F)(F)F` [Example 121, 3-[(4-Methoxy-3-trifluoromethyl-phenylamino)-methylene]-4-methyl-1,3-dihydro-indol-2-one], the inhibition at 10 µM in test [1] (Homo sapiens) was found to be 4.86%. Regarding `CCc1ccccc1NC=C1C(=O)Nc2cccc(C)c21` [Example 127, 3-[(2-Ethyl-phenylamino)-methylene]-4-methyl-1,3-dihydro-indol-2-one], in test [1] (Homo sapiens), the inhibition at 10 µM was -11.8%.

As to `Cc1cccc2c1C(=CNc1ccc(C(N)=O)cc1)C(=O)N2` [Example 129, 4-[(4-Methyl-2-oxo-1,2-dihydro-indol-3-ylidenemethyl)-amino]-benzamide], in test [1] (Homo sapiens), the inhibition at 10 µM was 99% and the IC50 came out at 1270 nM. For `Cc1cc(NC=C2C(=O)Nc3cccc(C)c32)ccc1O` [Example 132, 3-[(4-Hydroxy-3-methyl-phenylamino)-methylene]-4-methyl-1,3-dihydro-indol-2-one], in test [1] (Homo sapiens), the inhibition at 10 µM stood at 73% and the IC50 is 7380 nM.

Consider `Cc1cc(NC=C2C(=O)Nc3ccccc32)ccc1O` [Example 133, 3-[(4-Hydroxy-3-methyl-phenylamino)-methylene]-1,3-dihydro-indol-2-one], for which, in test [1] (Homo sapiens), the inhibition at 10 µM turned out to be 73% and the IC50 is 4910 nM. In the case of `CCc1cccc(NC=C2C(=O)Nc3ccc(Cl)cc32)c1` [Example 148, 5-Chloro-3-[(3-ethyl-phenylamino)-methylene]-1,3-dihydro-indol-2-one], the inhibition at 10 µM in test [1] (Homo sapiens) came to 42.2%.

As to `N#Cc1ccc(NC=C2C(=O)Nc3ccc(Cl)cc32)cc1` [Example 152, 4-[(5-Chloro-2-oxo-1,2-dihydro-indol-3-ylidenemethyl)-amino]-benzonitrile], the inhibition at 10 µM in test [1] (Homo sapiens) was 18.7%.

For `Cc1cccc2c1C(=CNc1ccc(C(=O)O)c(O)c1)C(=O)N2` [Example 155, 2-Hydroxy-4-[(4-methyl-2-oxo-1,2-dihydro-indol-3-ylidenemethyl)-amino]-benzoic acid], in test [1] (Homo sapiens), the inhibition at 10 µM is 97.2% and the IC50 worked out at 2600 nM. For `CCN(CC)Cc1cc(NC=C2C(=O)Nc3cccc(C)c32)ccc1O` [Example 161, 3-[(3-Diethylaminomethyl-4-hydroxy-phenylamino)-methylene]-4-methyl-1,3-dihydro-indol-2-one], the inhibition at 10 µM in test [1] (Homo sapiens) came out at 95.2%. `O=C1Nc2ccc(F)cc2C1=CNc1ccc(N2CCCCC2)cc1` [Example 221]: in test [1], the “VEGF Stimulated Ca^++ signal assay % inhibition @ 10 μM” value was found to be 97.59% and the IC50 was 930 nM. `Cc1cccc2c1C(=CNc1ccc(OCCCCN3CCCCC3)cc1)C(=O)N2` [Example 246, 4-Methyl-3-{[4-(4-piperidin-1-yl-butoxy)-phenylamino]-methylene}-1,3-dihydro-indol-2-one]: the IC50 in test [2] is 90 nM.

On to `O=C1Nc2ccccc2C1=CNc1ccc(CN2CCCCC2)cc1` [Example 251, 3-[(4-Piperidin-1-ylmethyl-phenylamino)-methylene]-1,3-dihydro-indol-2-one], for which, in test [2], half-maximal inhibition (IC50) required 140 nM. On the same count and under the same terms, next, `Cc1cccc2c1C(=CNc1ccc(OCCN3CCCCC3)cc1)C(=O)N2` [Example 252, 4-Methyl-3-{[4-(2-piperidin-1-yl-ethoxy)-phenylamino]-methylene}-1,3-dihydro-indol-2-one]: 150 nM. As for `CN1CCN(CCCNc2ccc(NC=C3C(=O)Nc4ccccc43)cc2)CC1` [Example 302, 3-({4-[3-(4-Methyl-piperazin-1-yl)-propylamino]-phenylamino}-methylene)-1,3-dihydro-indol-2-one], in test [1] (Homo sapiens), the concentration for half-maximal inhibition (IC50) came out at 710 nM. For the compound `Cc1cccc2c1C(=CNc1ccc(NCCCN3CCN(C)CC3)cc1)C(=O)N2` [Example 303, 4-Methyl-3-({4-[3-(4-methyl-piperazin-1-yl)-propylamino]-phenylamino}-methylene)-1,3-dihydro-indol-2-one], the IC50 in test [1] (Homo sapiens) stood at 520 nM. With `CN1CCN(CCCNc2ccc(NC=C3C(=O)Nc4cc(F)ccc43)cc2)CC1` [Example 304, 6-Fluoro-3-({4-[3-(4-methyl-piperazin-1-yl)-propylamino]-phenylamino}-methylene)-1,3-dihydro-indol-2-one], in test [1] (Homo sapiens), the half-inhibitory concentration (IC50) worked out at 120 nM. On to `O=C1Nc2ccccc2C1=CNc1ccc(CCCCN2CCOCC2)cc1` [Example 312, 3-{[4-(4-Morpholin-4-yl-butyl)-phenylamino]-methylene}-1,3-dihydro-indol-2-one], for which the 50% inhibitory concentration (IC50) in test [1] (Homo sapiens) is 540 nM. Turning to `O=C1Nc2ccc(Cl)cc2C1=CNc1ccc(CCCCN2CCOCC2)cc1` [Example 313, 5-Chloro-3-{[4-(4-morpholin-4-yl-butyl)-phenylamino]-methylene}-1,3-dihydro-indol-2-one], the IC50 in test [1] (Homo sapiens) came out at 990 nM. With `Cc1cccc2c1C(=CNc1ccc(CCCCN3CCOCC3)cc1)C(=O)N2` [Example 314, 4-Methyl-3-{[4-(4-morpholin-4-yl-butyl)-phenylamino]-methylene}-1,3-dihydro-indol-2-one], the IC50 in test [1] (Homo sapiens) was determined as 320 nM. Consider `O=C1Nc2cccc(F)c2C1=CNc1ccc(CCCCN2CCOCC2)cc1` [Example 315, 4-Fluoro-3-{[4-(4-morpholin-4-yl-butyl)-phenylamino]-methylene}-1,3-dihydro-indol-2-one], for which, in test [1] (Homo sapiens), the IC50 was 1540 nM.

`O=C1Nc2ccc(F)cc2C1=CNc1ccc(CCCCN2CCOCC2)cc1` [Example 316, 5-Fluoro-3-{[4-(4-morpholin-4-yl-butyl)-phenylamino]-methylene}-1,3-dihydro-indol-2-one]: the IC50 in test [1] (Homo sapiens) came out at 590 nM. With `O=C1Nc2cc(F)ccc2C1=CNc1ccc(CCCCN2CCOCC2)cc1` [Example 317, 6-Fluoro-3-{[4-(4-morpholin-4-yl-butyl)-phenylamino]-methylene}-1,3-dihydro-indol-2-one], the half-inhibitory concentration (IC50) in test [1] (Homo sapiens) worked out at 170 nM. For `O=C1Nc2ccc(Cl)cc2C1=CNc1ccc(CCCCN2CCCCC2)cc1` [Example 319, 5-Chloro-3-{[4-(4-piperidin-1-yl-butyl)-phenylamino]-methylene}-1,3-dihydro-indol-2-one], the IC50 in test [1] (Homo sapiens) is 950 nM. As for `Cc1cccc2c1C(=CNc1ccc(CCCCN3CCCCC3)cc1)C(=O)N2` [Example 320, 4-Methyl-3-{[4-(4-piperidin-1-yl-butyl)-phenylamino]-methylene}-1,3-dihydro-indol-2-one], in test [1] (Homo sapiens), the IC50 came to 330 nM.

As to `O=C1Nc2cccc(F)c2C1=CNc1ccc(CCCCN2CCCCC2)cc1` [Example 321, 4-Fluoro-3-{[4-(4-piperidin-1-yl-butyl)-phenylamino]-methylene}-1,3-dihydro-indol-2-one], in test [1] (Homo sapiens), the IC50 stood at 1180 nM.
